The values below come from US8471005B2 (Cephalon, Inc., priority 2008, dated 2013).

Bounds are passed on as bounds.

Test [1] concerns the target T1, ALK (Homo sapiens, UniProt Q9UM73).
T1 construct: host or cells: baculovirus expression system
In words: ALK Kinase Assay (ELISA/TRF, PLC-γ substrate). The settings on record: ALK Kinase Inhibition; read-out: ALK Potency. It counts as biochemical. A digest of the protocol:
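Wells were coated with 10 μg/mL phospholipase C-γ substrate in TBS, and the reaction was started by adding 30 ng/ml ALK enzyme and run at 37° C for 15 minutes. Phosphorylated product was detected with Eu-N1-labeled PT66 antibody, and IC50 values came from sigmoidal variable-slope fits of percent inhibition against log concentration.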
On the technique in general: An ELISA detects its analyte on a solid surface through an enzyme-linked reagent.

The target in test [2] is T2, JAK2 (Homo sapiens, UniProt O60674).
T2 construct: host or cells: baculovirus expression system
In words: Recombinant Human JAK2 Kinase Assay (TRF). It counts as biochemical. The settings on record: JAK2 Kinase Inhibition; read-out: JAK2 Potency. Summed up:
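TRF read-out: Eu-N1 PY100 anti-phosphotyrosine antibody detects product. Enzyme is baculovirus-expressed JAK2 at 15 ng/ml; substrate is a biotinyl 15-mer peptide bound to Neutravidin-coated wells. Buffer 20 mM HEPES pH 7.2, 0.2 μM ATP, 1 mM MnCl2, 0.1% BSA, 2.5% DMSO final; 20 min, RT.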

T1 sequence (Q9UM73 19-1620): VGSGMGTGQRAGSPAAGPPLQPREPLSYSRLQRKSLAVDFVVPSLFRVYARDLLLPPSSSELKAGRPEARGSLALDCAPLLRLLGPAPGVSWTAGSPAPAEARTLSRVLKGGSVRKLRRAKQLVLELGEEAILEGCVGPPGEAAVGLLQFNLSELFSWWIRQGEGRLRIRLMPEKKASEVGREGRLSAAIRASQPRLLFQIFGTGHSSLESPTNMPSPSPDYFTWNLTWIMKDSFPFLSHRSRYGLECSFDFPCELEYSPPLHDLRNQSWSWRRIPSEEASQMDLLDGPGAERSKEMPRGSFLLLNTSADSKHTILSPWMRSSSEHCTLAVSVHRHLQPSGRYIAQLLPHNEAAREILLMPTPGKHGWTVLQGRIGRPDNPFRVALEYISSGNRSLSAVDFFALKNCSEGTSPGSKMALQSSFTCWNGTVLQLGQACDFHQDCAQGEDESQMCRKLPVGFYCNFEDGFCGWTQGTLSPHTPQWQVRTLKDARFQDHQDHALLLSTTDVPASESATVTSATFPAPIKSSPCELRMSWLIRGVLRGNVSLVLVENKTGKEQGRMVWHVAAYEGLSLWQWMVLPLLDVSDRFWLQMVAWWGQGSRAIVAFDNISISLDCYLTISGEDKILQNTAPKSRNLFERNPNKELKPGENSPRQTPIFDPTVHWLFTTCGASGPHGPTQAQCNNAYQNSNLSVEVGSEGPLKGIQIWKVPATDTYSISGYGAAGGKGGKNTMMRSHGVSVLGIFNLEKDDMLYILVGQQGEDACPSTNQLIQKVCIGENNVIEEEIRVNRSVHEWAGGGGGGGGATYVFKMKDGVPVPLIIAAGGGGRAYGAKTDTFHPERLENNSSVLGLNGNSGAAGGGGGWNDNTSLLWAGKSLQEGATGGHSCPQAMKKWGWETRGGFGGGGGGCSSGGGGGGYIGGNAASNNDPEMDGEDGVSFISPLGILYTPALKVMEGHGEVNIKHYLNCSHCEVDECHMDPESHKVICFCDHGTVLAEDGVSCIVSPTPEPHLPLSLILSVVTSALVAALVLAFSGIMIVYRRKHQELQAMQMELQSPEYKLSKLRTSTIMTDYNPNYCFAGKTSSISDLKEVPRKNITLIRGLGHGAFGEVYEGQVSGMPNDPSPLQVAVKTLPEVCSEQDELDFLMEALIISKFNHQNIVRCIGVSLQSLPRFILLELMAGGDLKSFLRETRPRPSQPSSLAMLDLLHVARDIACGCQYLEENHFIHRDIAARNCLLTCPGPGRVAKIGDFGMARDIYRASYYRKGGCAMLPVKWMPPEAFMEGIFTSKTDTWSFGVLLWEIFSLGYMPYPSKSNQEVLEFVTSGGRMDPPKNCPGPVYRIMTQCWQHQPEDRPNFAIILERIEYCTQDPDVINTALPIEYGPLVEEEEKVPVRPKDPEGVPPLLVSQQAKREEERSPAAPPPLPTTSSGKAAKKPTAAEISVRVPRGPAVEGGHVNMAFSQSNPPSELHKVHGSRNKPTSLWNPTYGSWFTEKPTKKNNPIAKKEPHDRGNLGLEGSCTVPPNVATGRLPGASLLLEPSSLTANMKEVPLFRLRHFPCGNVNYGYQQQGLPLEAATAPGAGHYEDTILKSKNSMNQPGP
T2 sequence (O60674 whole entry): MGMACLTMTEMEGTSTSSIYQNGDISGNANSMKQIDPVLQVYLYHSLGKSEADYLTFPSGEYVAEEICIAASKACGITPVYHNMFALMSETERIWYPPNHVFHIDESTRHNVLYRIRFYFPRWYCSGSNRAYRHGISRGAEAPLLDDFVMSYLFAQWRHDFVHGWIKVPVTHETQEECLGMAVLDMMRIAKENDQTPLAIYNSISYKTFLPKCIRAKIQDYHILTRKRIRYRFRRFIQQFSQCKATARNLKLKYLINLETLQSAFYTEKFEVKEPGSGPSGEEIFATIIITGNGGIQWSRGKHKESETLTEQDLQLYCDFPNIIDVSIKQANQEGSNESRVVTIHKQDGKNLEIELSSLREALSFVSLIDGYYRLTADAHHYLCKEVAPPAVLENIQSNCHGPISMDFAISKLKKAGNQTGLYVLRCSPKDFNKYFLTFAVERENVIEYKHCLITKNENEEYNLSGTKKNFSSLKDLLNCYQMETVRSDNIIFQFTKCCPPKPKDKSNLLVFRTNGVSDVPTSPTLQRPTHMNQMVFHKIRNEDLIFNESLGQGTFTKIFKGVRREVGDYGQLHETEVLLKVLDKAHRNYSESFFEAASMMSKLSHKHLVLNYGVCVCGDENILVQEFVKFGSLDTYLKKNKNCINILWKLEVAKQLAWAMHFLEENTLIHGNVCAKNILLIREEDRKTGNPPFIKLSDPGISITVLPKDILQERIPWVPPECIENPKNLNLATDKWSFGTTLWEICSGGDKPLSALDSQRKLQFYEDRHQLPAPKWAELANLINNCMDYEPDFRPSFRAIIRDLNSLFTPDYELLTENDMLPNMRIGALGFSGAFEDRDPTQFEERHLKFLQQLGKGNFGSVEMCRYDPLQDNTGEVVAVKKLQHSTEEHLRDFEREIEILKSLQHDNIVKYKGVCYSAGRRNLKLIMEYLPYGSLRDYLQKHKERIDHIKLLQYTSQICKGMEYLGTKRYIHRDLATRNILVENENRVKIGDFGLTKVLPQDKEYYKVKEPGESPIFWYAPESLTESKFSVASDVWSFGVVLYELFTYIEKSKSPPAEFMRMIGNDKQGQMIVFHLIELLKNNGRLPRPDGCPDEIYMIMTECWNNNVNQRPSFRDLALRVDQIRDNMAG

Regarding `CS(=O)(=O)Nc1cccc(-c2ccc3cnc(Nc4ccc(F)c(N5CCOCC5)c4)nn23)c1` [Example 390, N-{3-[2-(4-Fluoro-3-morpholin-4-yl-phenylamino)-pyrrolo[2,1-f][1,2,4]triazin-7-yl]-phenyl}-methanesulfonamide], the results for the IC50 in test [1] and in test [2] were 0.1 to 1 µM and less than 0.1 µM, respectively.
Take `Fc1ccc(Nc2ncc3ccc(-c4cccnc4)n3n2)cc1N1CCOCC1` [Example 391, (4-Fluoro-3-morpholin-4-yl-phenyl)-(7-pyridin-3-yl-pyrrolo[2,1-f][1,2,4]triazin-2-yl)-amine]: the IC50 was 1 to 10 µM in test [1] and less than 0.1 µM in test [2].
As for `COc1ccc(-c2ccc3cnc(Nc4ccc(F)c(N5CCOCC5)c4)nn23)cn1` [Example 392, (4-Fluoro-3-morpholin-4-yl-phenyl)-[7-(6-methoxy-pyridin-3-yl)-pyrrolo[2,1-f][1,2,4]triazin-2-yl]-amine], the IC50 in test [1] is 1 to 10 µM; in test [2], less than 0.1 µM.
The matching figures for `COc1ccc(Nc2ncc3ccc(-c4ccccc4N(C)S(C)(=O)=O)n3n2)cc1N1CCOCC1` [Example 393, N-{2-[2-(4-Methoxy-3-morpholin-4-yl-phenylamino)-pyrrolo[2,1-f][1,2,4]triazin-7-yl]-phenyl}-N-methyl-methanesulfonamide]: less than 0.1 µM and less than 0.1 µM.
On to `COc1ccccc1-c1ccc2cnc(Nc3ccc(OC)c(N4CCOCC4)c3)nn12` [Example 394, (4-Methoxy-3-morpholin-4-yl-phenyl)-[7-(2-methoxy-phenyl)-pyrrolo[2,1-f][1,2,4]triazin-2-yl]-amine], for which the IC50 in test [1] and in test [2] was less than 0.1 µM each time.
For `COc1ccc(Nc2ncc3ccc(-c4cccc(NS(C)(=O)=O)c4)n3n2)cc1N1CCOCC1` [Example 395, N-{3-[2-(4-Methoxy-3-morpholin-4-yl-phenylamino)-pyrrolo[2,1-f][1,2,4]triazin-7-yl]-phenyl}-methanesulfonamide], the IC50 was 0.1 to 1 µM in test [1] and less than 0.1 µM in test [2].
For `COc1ccc(Nc2ncc3ccc(-c4cccnc4)n3n2)cc1N1CCOCC1` [Example 396, (4-Methoxy-3-morpholin-4-yl-phenyl)-(7-pyridin-3-yl-pyrrolo[2,1-f][1,2,4]triazin-2-yl)-amine] the same measures were 0.1 to 1 µM and less than 0.1 µM.
For `COc1ccc(-c2ccc3cnc(Nc4ccc(OC)c(N5CCOCC5)c4)nn23)cn1` [Example 397, (4-Methoxy-3-morpholin-4-yl-phenyl)-[7-(6-methoxy-pyridin-3-yl)-pyrrolo[2,1-f][1,2,4]triazin-2-yl]-amine] the same measures were 0.1 to 1 µM and less than 0.1 µM.
For `CC(=O)c1ccccc1-c1ccc2cnc(Nc3ccc(N4CCOCC4)cc3)nn12` [Example 400, 1-{2-[2-(4-Morpholin-4-yl-phenylamino)-pyrrolo[2,1-f][1,2,4]triazin-7-yl]-phenyl}-ethanone] the same measures were 1 to 10 µM and less than 0.1 µM.
Turning to `CC(C)(C)C(=O)Nc1ccccc1-c1ccc2cnc(Nc3ccc(N4CCOCC4)cc3)nn12` [Example 401, 2,2-Dimethyl-N-{2-[2-(4-morpholin-4-yl-phenylamino)-pyrrolo[2,1-f][1,2,4]triazin-7-yl]-phenyl}-propionamide], the IC50 in test [1] is greater than 10 µM; in test [2] it was less than 0.1 µM.
For `CC(=O)c1ccccc1-c1ccc2cnc(Nc3ccc(N4CCN(C)CC4)cc3)nn12` [Example 402, 1-(2-{2-[4-(4-Methyl-piperazin-1-yl)-phenylamino]-pyrrolo[2,1-f][1,2,4]triazin-7-yl}-phenyl)-ethanone] the same measures were 0.1 to 1 µM and less than 0.1 µM.
The matching figures for `CN1CCN(c2ccc(Nc3ncc4ccc(-c5ccccc5NC(=O)C(C)(C)C)n4n3)cc2)CC1` [Example 403, 2,2-Dimethyl-N-(2-{2-[4-(4-methyl-piperazin-1-yl)-phenylamino]-pyrrolo[2,1-f][1,2,4]triazin-7-yl}-phenyl)-propionamide]: greater than 10 µM and 1 to 10 µM.
As to `CN1CCN(c2ccc(Nc3ncc4ccc(-c5ccccc5[S+](C)[O-])n4n3)cc2)CC1` (stereo not shown) [Example 404, [7-(2-Methanesulfinyl-phenyl)-pyrrolo[2,1-f][1,2,4]triazin-2-yl]-[4-(4-methyl-piperazin-1-yl)-phenyl]-amine], the IC50 in test [1] was 0.1 to 1 µM; in test [2], less than 0.1 µM.
`C[S+]([O-])c1ccccc1-c1ccc2cnc(Nc3ccc(N4CCOCC4)cc3)nn12` (stereo not shown) [Example 405, [7-(2-Methanesulfinyl-phenyl)-pyrrolo[2,1-f][1,2,4]triazin-2-yl]-(4-morpholin-4-yl-phenyl)-amine]: the values for the IC50 in test [1] and in test [2] were 1 to 10 µM and less than 0.1 µM, respectively.
For `CN1CCN(c2ccc(Nc3ncc4ccc(-c5ccccc5S(C)(=O)=O)n4n3)cc2)CC1` [Example 406, [7-(2-Methanesulfonyl-phenyl)-pyrrolo[2,1-f][1,2,4]triazin-2-yl]-[4-(4-methyl-piperazin-1-yl)-phenyl]-amine], the IC50 is 1 to 10 µM in test [1] and less than 0.1 µM in test [2].
Consider `CCN(CC)C(=O)c1ccccc1-c1ccc2cnc(Nc3ccc(N4CCN(C)CC4)cc3)nn12` [Example 407, N,N-Diethyl-2-{2-[4-(4-methyl-piperazin-1-yl)-phenylamino]-pyrrolo[2,1-f][1,2,4]triazin-7-yl}-benzamide], for which the figures for the IC50 in test [1] and in test [2] were 0.1 to 1 µM and less than 0.1 µM, respectively.
For the compound `CCN(CC)C(=O)c1ccccc1-c1ccc2cnc(Nc3ccc(N4CCOCC4)cc3)nn12` [Example 408, N,N-Diethyl-2-[2-(4-morpholin-4-yl-phenylamino)-pyrrolo[2,1-f][1,2,4]triazin-7-yl]-benzamide], the IC50 in test [1] is 0.1 to 1 µM; in test [2], less than 0.1 µM.
On to `CN1CCN(c2ccc(Nc3ncc4ccc(-c5ccccc5C(N)=O)n4n3)cc2)CC1` [Example 409, 2-{2-[4-(4-Methyl-piperazin-1-yl)-phenylamino]-pyrrolo[2,1-f][1,2,4]triazin-7-yl}-benzamide], for which the results for the IC50 in test [1] and in test [2] were 0.1 to 1 µM and less than 0.1 µM, respectively.
On to `CN(c1ccccc1-c1ccc2cnc(Nc3cccc(N4CCOCC4)c3)nn12)S(C)(=O)=O` [Example 410, N-Methyl-N-{2-[2-(3-morpholin-4-yl-phenylamino)-pyrrolo[2,1-f][1,2,4]triazin-7-yl]-phenyl}-methanesulfonamide], for which the IC50 in test [1] was 0.1 to 1 µM; in test [2], less than 0.1 µM.
Regarding `CN1CCN(c2ccc(Nc3ncc4ccc(-c5ccccc5S(=O)(=O)NC(C)(C)C)n4n3)cc2)CC1` [Example 411], the IC50 in test [1] and in test [2] was less than 0.1 µM each time.
Turning to `CC(C)(C)NS(=O)(=O)c1ccccc1-c1ccc2cnc(Nc3ccc(N4CCOCC4)cc3)nn12` [Example 412], the IC50 in test [1] and in test [2] was 0.1 to 1 µM throughout.
On to `CN1CCN(c2ccc(Nc3ncc4ccc(-c5cccc(NS(=O)(=O)C6CC6)c5)n4n3)cc2)CC1` [Example 413, Cyclopropanesulfonic acid (3-{2-[4-(4-methyl-piperazin-1-yl)-phenylamino]-pyrrolo[2,1-f][1,2,4]triazin-7-yl}-phenyl)-amide], for which the values for the IC50 in test [1] and in test [2] were 0.1 to 1 µM and less than 0.1 µM, respectively.
The matching figures for `O=S(=O)(Nc1cccc(-c2ccc3cnc(Nc4ccc(N5CCOCC5)cc4)nn23)c1)C1CC1` [Example 414, Cyclopropanesulfonic acid {3-[2-(4-morpholin-4-yl-phenylamino)-pyrrolo[2,1-f][1,2,4]triazin-7-yl]-phenyl}-amide]: 0.1 to 1 µM and less than 0.1 µM.
The matching figures for `CCS(=O)(=O)Nc1cccc(-c2ccc3cnc(Nc4ccc(N5CCN(C)CC5)cc4)nn23)c1` [Example 415, Ethanesulfonic acid (3-{2-[4-(4-methyl-piperazin-1-yl)-phenylamino]-pyrrolo[2,1-f][1,2,4]triazin-7-yl}-phenyl)-amide]: 0.1 to 1 µM and less than 0.1 µM.
For `CCS(=O)(=O)Nc1cccc(-c2ccc3cnc(Nc4ccc(N5CCOCC5)cc4)nn23)c1` [Example 416, Ethanesulfonic acid {3-[2-(4-morpholin-4-yl-phenylamino)-pyrrolo[2,1-f][1,2,4]triazin-7-yl]-phenyl}-amide], the IC50 in test [1] was 0.1 to 1 µM; in test [2], less than 0.1 µM.
For `CCCS(=O)(=O)Nc1cccc(-c2ccc3cnc(Nc4ccc(N5CCN(C)CC5)cc4)nn23)c1` [Example 417, Propane-1-sulfonic acid (3-{2-[4-(4-methyl-piperazin-1-yl)-phenylamino]-pyrrolo[2,1-f][1,2,4]triazin-7-yl}-phenyl)-amide], the IC50 in test [1] and in test [2] was less than 0.1 µM throughout.
For `CCCS(=O)(=O)Nc1cccc(-c2ccc3cnc(Nc4ccc(N5CCOCC5)cc4)nn23)c1` [Example 418, Propane-1-sulfonic acid {3-[2-(4-morpholin-4-yl-phenylamino)-pyrrolo[2,1-f][1,2,4]triazin-7-yl]-phenyl}-amide], the IC50 in test [1] was 0.1 to 1 µM; in test [2], less than 0.1 µM.
For `CN1CCN(c2ccc(Nc3ncc4ccc(-c5cccc(N(C)S(C)(=O)=O)c5)n4n3)cc2)CC1` [Example 419, N-Methyl-N-(3-{2-[4-(4-methyl-piperazin-1-yl)-phenylamino]-pyrrolo[2,1-f][1,2,4]triazin-7-yl}-phenyl)-methanesulfonamide], the IC50 in test [1] is 0.1 to 1 µM; in test [2] it was less than 0.1 µM.
As for `CN(c1cccc(-c2ccc3cnc(Nc4ccc(N5CCOCC5)cc4)nn23)c1)S(C)(=O)=O` [Example 420, N-Methyl-N-{3-[2-(4-morpholin-4-yl-phenylamino)-pyrrolo[2,1-f][1,2,4]triazin-7-yl]-phenyl}-methanesulfonamide], the values for the IC50 in test [1] and in test [2] were 1 to 10 µM and less than 0.1 µM, respectively.
